Test results published in EP4748839A1 (CSPC Zhongqi Pharmaceutical Technology (Shijiazhuang) Co., …, priority 2023, dated 2025).

Target: T1, GLP-1R (Homo sapiens, UniProt P43220)
T1 construct: expressed in transfected cells
Experiment: GLP-1R agonistic effect in GLP1R-cAmp-Luc cells (luciferase reporter; titled 'Enzymatic assay')
Assay type: cell-based
Conditions: for EC50: 4 hours incubation, firefly luciferin signal; for EC50 of Positive reference / EC50 of Compound of the Present Application: Positive reference is PF-06882961
Protocol: The GLP-1R agonistic effects of the test compounds were determined using GLP1R-cAmp-Luc cells. 1) The test compound was dissolved in DMSO and mixed well until the test compound was completely dissolved. The test compounds were dissolved in DMSO to prepare 10 mM stock solutions. All compounds were diluted with DMEM medium (high sugar, Puromycin^+, Hygromycin B^+) to an initial concentration of 1250 nM, and then subjected to 5-fold serial dilution to a total of 7 concentration gradients. The GLP1R-cAmp-Luc cells were seeded in white-wall 96-well cell culture plates at a density of 1×10^5/mL, with 90 µL cell suspension per well; the test compound at each of the 7 concentration gradients was added at 10 µL per well, with the actual initial working concentration of 125 nM; and the cells were placed in a 37 °C, 5% CO2 cell incubator for 4 hours; 2) 100 µL of luciferin potassium salt solution diluted to 300 µg/mL in PBS was added to each well at a working concentration of 150 µg/mL and incubated at room temperature for 30 minutes; 3) fluorescence signals of firefly luciferin were measured with a multifunctional microplate reader (PerkinElmer, Nivo); and the fluorescence values were processed using GraphPad Prism software to calculate EC50 values.

T1 sequence (P43220 24-463, species assumed): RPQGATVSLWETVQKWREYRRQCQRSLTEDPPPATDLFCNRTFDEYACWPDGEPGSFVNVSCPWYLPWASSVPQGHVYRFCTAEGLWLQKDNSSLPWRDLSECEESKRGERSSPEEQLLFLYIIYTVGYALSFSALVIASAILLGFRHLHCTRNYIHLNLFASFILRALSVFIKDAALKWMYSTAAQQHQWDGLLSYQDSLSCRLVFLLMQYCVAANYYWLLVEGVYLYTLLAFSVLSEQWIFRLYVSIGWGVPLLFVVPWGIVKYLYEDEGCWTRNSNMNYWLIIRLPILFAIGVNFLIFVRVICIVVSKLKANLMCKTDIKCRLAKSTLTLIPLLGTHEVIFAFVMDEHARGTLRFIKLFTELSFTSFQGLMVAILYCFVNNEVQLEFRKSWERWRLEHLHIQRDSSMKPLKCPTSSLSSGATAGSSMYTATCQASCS

SMILES | EC50 | EC50 of Positive reference / EC50 of Compound of the Present Application
COc1cc(C(F)(F)F)ccc1COc1ncc(F)c(-c2cc(F)c(Cc3nc4c(OC)cc(C(=O)O)cc4n3C[C@@H]3CCO3)c3c2OCC3)n1 [Compound 130, (S)-2-((7-(5-fluoro-2-((2-methoxy-4-(trifluoromethyl)benzyl)oxy)pyrimidin-4-yl)-5-fluoro-2,3-dihydrobenzofuran-4-yl)methyl)-4-methoxy-1-(oxetan-2-ylmethyl)-1H-benzo[d]imidazole-6-carboxylic acid] | ≤ 1 nM | Ratio ≥10
COc1cc(C(=O)O)cc2c1nc(Cc1c(F)cc(-c3cccc(OCc4ccc(Cl)cc4F)c3)c3c1CCO3)n2C[C@@H]1CCO1 [Compound 107, (S)-2-((7-(3-((4-chloro-2-fluorobenzyl)oxy)phenyl)-5-fluoro-2,3-dihydrobenzofuran-4-yl)methyl)-4-methoxy-1-(oxetan-2-ylmethyl)-1H-benzo[d]imidazole-6-carboxylic acid] | 1 to 5 nM | 
COc1cc(C(=O)O)cc2c1nc(Cc1c(F)cc(-c3ncc(F)c(OCc4ccc(C5COC5)cc4F)n3)c3c1CCO3)n2C[C@@H]1CCO1 [Compound 129, (S)-2-((7-(5-fluoro-4-((2-fluoro-4-(oxetan-3-yl)benzyl)oxy)pyrimidin-2-yl)-5-fluoro-2,3-dihydrobenzofuran-4-yl)methyl)-4-methoxy-1-(oxetan-2-ylmethyl)-1H-benzo[d]imidazole-6-carboxylic acid] | ≤ 1 nM | 
COc1cc(C(=O)O)cc2c1nc(Cc1c(F)cc(-c3ccnc(OCc4ccc(Cl)cc4OC(F)F)n3)c3c1CCO3)n2C[C@@H]1CCO1 [Compound 113, (S)-2-((7-(2-((2-difluoromethoxy-4-chlorobenzyl)oxy)pyrimidin-4-yl)-5-fluoro-2,3-dihydrobenzofuran-4-yl)methyl)-4-methoxy-1-(oxetan-2-ylmethyl)-1H-benzo[d]imidazole-6-carboxylic acid] | ≤ 1 nM | Ratio ≥10
COc1cc(C(F)(F)F)ccc1COc1nccc(-c2cc(F)c(Cc3nc4c(OC)cc(C(=O)O)cc4n3C[C@@H]3CCO3)c3c2OCC3)n1 [Compound 110, (S)-2-((7-(2-((2-methoxy-4-(trifluoromethyl)benzyl)oxy)pyrimidin-4-yl)-5-fluoro-2,3-dihydrobenzofuran-4-yl)methyl)-4-methoxy-1-(oxetan-2-ylmethyl)-1H-benzo[d]imidazole-6-carboxylic acid] | ≤ 1 nM | Ratio ≥10
COc1cc(C(=O)O)cc2c1nc(Cc1c(F)cc(-c3nc(OCc4ccc(Cl)cc4OC(F)F)ncc3F)c3c1CCO3)n2C[C@@H]1CCO1 [Compound 131] | ≤ 1 nM | Ratio ≥10
COc1cc(C(=O)O)cc2c1nc(Cc1c(F)cc(-c3ccc(Cl)c(OCc4ccc(Cl)cc4F)n3)c3c1CCO3)n2C[C@@H]1CCO1 [Compound 108, (S)-2-((7-(5-chloro-6-((4-chloro-2-fluorobenzyl)oxy)pyridin-2-yl)-5-fluoro-2,3-dihydrobenzofuran-4-yl)methyl)-4-methoxy-1-(oxetan-2-ylmethyl)-1H-benzo[d]imidazole-6-carboxylic acid] | 1 to 5 nM | 
COc1cc(C(=O)O)cc2c1nc(Cc1c(F)cc(-c3cccc(OCc4ccc(Cl)cc4OC(F)F)n3)c3c1CCO3)n2C[C@@H]1CCO1 [Compound 84, (S)-2-((7-(6-((4-chloro-2-(difluoromethoxy)benzyl)oxy)pyridin-2-yl)-5-fluoro-2,3-dihydrobenzofuran-4-yl)methyl)-4-methoxy-1-(oxetan-2-ylmethyl)-1H-benzo[d]imidazole-6-carboxylic acid] | ≤ 1 nM | Ratio ≥10
COc1cc(C(=O)O)cc2c1nc(Cc1c(F)cc(-c3ccc(F)c(OCc4ccc(Cl)cc4OC(F)F)n3)c3c1CCO3)n2C[C@@H]1CCO1 [Compound 114] | ≤ 1 nM | Ratio ≥10
COc1cc(C(=O)O)cc2c1nc(Cc1c(F)cc(-c3nccc(OCc4ccc(C5COC5)cc4F)n3)c3c1CCO3)n2C[C@@H]1CCO1 [Compound 127, (S)-2-((7-(4-((2-fluoro-4-(oxetan-3-yl)benzyl)oxy)pyrimidin-2-yl)-5-fluoro-2,3-dihydrobenzofuran-4-yl)methyl)-4-methoxy-1-(oxetan-2-ylmethyl)-1H-benzo[d]imidazole-6-carboxylic acid] | 1 to 5 nM | 
O=C(O)c1cc(OCC(F)F)c2nc(Cc3c(F)cc(-c4cccc(OCc5ccc(Cl)cc5OC(F)F)n4)c4c3OCO4)n(CC3(CF)CC3)c2c1 [Compound 86, 2-((7-(6-((4-Chloro-2-(difluoromethoxy)benzyl)oxy)pyridin-2-yl)-5-fluoro-benzo[d][1,3]dioxolan-4-yl)methyl)-4-(2,2-difluoroethoxy)-1-((1-(fluoromethyl)cyclopropyl)methyl)-1H-benzo[d]imidazole-6-carboxylic acid] | 1 to 5 nM | 
COc1cc(C(=O)O)cc2c1nc(Cc1c(F)cc(-c3ccnc(OCc4ccc(C)cc4F)n3)c3c1CCO3)n2C[C@@H]1CCO1 [Compound 133, (S)-2-((7-(2-((2-fluoro-4-methylbenzyl)oxy)pyrimidin-4-yl)-5-fluoro-2,3-dihydrobenzofuran-4-yl)methyl)-4-methoxy-1-(oxetan-2-ylmethyl)-1H-benzo[d]imidazole-6-carboxylic acid] | ≤ 1 nM | Ratio ≥10
COc1cc(C(F)(F)F)ccc1COc1cccc(-c2cc(F)c(Cc3nc4c(OCC(F)F)cc(C(=O)O)cc4n3CC3(CF)CC3)c3c2OCC3)n1 [Compound 79] | ≤ 1 nM | 

Further lines, results first:

EC50 | EC50 of Positive reference / EC50 of Compound of the Present Application | SMILES
1 to 5 nM |  | N#CCC1(Cn2c(Cc3c(Cl)cc(-c4cccc(OCc5ccc(C#N)cc5F)n4)c4c3CCO4)nc3ccc(C(=O)O)nc32)CC1 [Compound 19, 2-((5-chloro-7-(6-((4-cyano-2-fluorobenzyl)oxy)pyridin-2-yl)-2,3-dihydrobenzofuran-4-yl)methyl)-3-((1-(cyanomethyl)cyclopropyl)methyl)-3H-imidazo[4,5-b]pyridine-5-carboxylic acid]
≤ 1 nM | Ratio ≥10 | COc1cc(C(=O)O)cc2c1nc(Cc1c(F)cc(-c3cccc(OCc4ccc(Cl)cc4F)n3)c3c1CCO3)n2C[C@@H]1CCO1 [Compound 81, (S)-2-((7-(6-((4-chloro-2-fluorobenzyl)oxy)pyridin-2-yl)-5-fluoro-2,3-dihydrobenzofuran-4-yl)methyl)-4-methoxy-1-(oxetan-2-ylmethyl)-1H-benzo[d]imidazole-6-carboxylic acid]
≤ 1 nM |  | O=C(O)c1ccc2nc(Cc3c(F)cc(-c4ccnc(OCc5ccc(Cl)cc5F)n4)c4c3CCO4)n(C[C@@H]3CCO3)c2c1 [Compound 124, (S)-2-((7-(2-((4-chloro-2-fluorobenzyl)oxy)pyrimidin-4-yl)-5-fluoro-2,3-dihydrobenzofuran-4-yl)methyl)-1-(oxetan-2-ylmethyl)-1H-benzo[d]imidazole-6-carboxylic acid]
≤ 1 nM |  | O=C(O)c1ccc2nc(Cc3c(F)cc(-c4cccc(OCc5ccc(Cl)cc5OC(F)F)n4)c4c3CCO4)n(C[C@@H]3CCO3)c2c1 [Compound 95, (S)-2-((7-(6-((4-chloro-2-(difluoromethoxy)benzyl)oxy)pyridin-2-yl)-5-fluoro-2,3-dihydrobenzofuran-4-yl)methyl)-1-(oxetan-2-ylmethyl)-1H-benzimidazole-6-carboxylic acid]
1 to 5 nM |  | N#Cc1ccc(COc2cccc(-c3ccc(Cc4nc5ccc(C(=O)O)cc5n4C[C@@H]4CCO4)c4c3OCC4)n2)c(F)c1 [Compound 2, (S)-2-((7-(6-((4-cyano-2-fluorobenzyl)oxy)pyridin-2-yl)-2,3-dihydrobenzofuran-4-yl)methyl)-1-(oxetan-2-ylmethyl)-1H-benzo[d]imidazole-6-carboxylic acid]
1 to 5 nM |  | N#CCC1(Cn2c(Cc3c(Cl)cc(-c4cccc(OCc5ccc(C#N)cc5F)n4)c4c3CCO4)nc3ccc(C(=O)O)cc32)CC1 [Compound 18, 2-((5-chloro-7-(6-((4-cyano-2-fluorobenzyl)oxy)pyridin-2-yl)-2,3-dihydrobenzofuran-4-yl)methyl)-1-((1-(cyanomethyl)cyclopropyl)methyl)-1H-benzo[d]imidazole-6-carboxylic acid]
5 to 10 nM |  | CC(c1ccc(-c2cccc(OCc3ccc(C#N)cc3F)n2)c2c1CCO2)c1nc2ccc(C(=O)O)cc2n1C[C@@H]1CCO1 (stereo partly drawn) [Compound 6, 2-(1-(7-(6-((4-cyano-2-fluorobenzyl)oxy)pyridin-2-yl)-2,3-dihydrobenzofuran-4-yl)ethyl)-1-(((S)-oxetan-2-yl)methyl)-1H-benzo[d]imidazole-6-carboxylic acid]
1 to 5 nM |  | O=C(O)c1ccc2nc(Cc3ccc(-c4cccc(OCc5ccc(Cl)cc5F)n4)c4c3CCC4=O)n(C[C@@H]3CCO3)c2c1 [Compound 20, (S)-2-((7-(6-((4-chloro-2-fluorobenzyl)oxy)pyridin-2-yl)-1-oxo-2,3-dihydro-1H-inden-4-yl)methyl)-1-(oxetan-2-ylmethyl)-1H-benzo[d]imidazole-6-carboxylic acid]
≤ 1 nM | Ratio ≥10 | COc1cc(C(=O)O)cc2c1nc(Cc1c(F)cc(-c3cccc(OCc4ccc(C#N)cc4F)n3)c3c1CCO3)n2C[C@@H]1CCO1 [Compound 100, (S)-2-((7-(6-((4-cyano-2-fluorobenzyl)oxy)pyridin-2-yl)-5-fluoro-2,3-dihydrobenzofuran-4-yl)methyl)-4-methoxy-1-(oxetan-2-ylmethyl)-1H-benzo[d]imidazole-6-carboxylic acid]
